Results as given in patent US20250186600A1, “EXCIPIENT COMPOUNDS FOR PROTEIN FORMULATIONS” (Comera Life Sciences, Inc., priority 2020, published 2025).
Where “and” joins values, the source holds several entries; their conditions need not be identical. Equal entries are not always repeated.

Tests used:
[1] = target: T1, PEGylated BSA with 1 PEG chain per BSA molecule (Bos taurus, UniProt P02769); assay: Viscosity of PEGylated BSA with 1 PEG chain per BSA molecule (Example 16); format: physicochemical; conditions: Table 8; versus 228.6 cP with no excipient
T1 construct: purchased Aldrich A7906
Experimental: To a beaker was added 200 mL of a phosphate buffered saline (Aldrich Cat. #P4417) and 4 g of BSA (Aldrich Cat. #A7906) and mixed with a magnetic bar. Next 400 mg of methoxy polyethylene glycol maleimide, MW=5,000, (Aldrich Cat. #63187) was added. The reaction mixture was allowed to react overnight at room temperature. The following day, 20 drops of HCl 0.1 M were added to stop the reaction. […] The reaction mixture was placed in an Amicon centrifuge tube with a molecular weight cutoff (MWCO) of 30 kDa and concentrated to a few milliliters. Next the sample was diluted 20 times with a histidine buffer, 50 mM at a pH of approximately 6, followed by concentrating until a high viscosity fluid was obtained.
The viscometer measurements were completed at ambient temperature.

[2] = target: PEGylated lysozyme with multiple PEG chains per lysozyme molecule (Gallus gallus, UniProt P00698); conditions: Table 10
Experimental: The solution was mixed by gently shaking and the viscosity was measured by a RheoSense microVisc equipped with an A10 channel (100 micron depth) at a shear rate of 500 s-1. The viscometer measurements were completed at ambient temperature.

[3] = tested on: BGG; conditions: Table 15; versus 130.6 cP with no excipient
Experimental: Each buffer solution contained different excipient or combination of excipients as described in the table below (Table 15). The viscosity of the solutions was measured as described in previous examples.

[4] = tested on: bovine gamma globulin (BGG); assay: Normalized viscosity of BGG with caffeine and a secondary excipient (Example 40); format: physicochemical; conditions: BGG about 280 mg/mL, 20 mM histidine pH 6, 25° C.
[5] = tested on: bovine gamma globulin (BGG); assay: Viscosity of 280 mg/mL BGG formulations with excipient compounds, cone and plate viscometer (Examples 1, 2, 4-6); format: physicochemical
[6] = tested on: omalizumab; assay: DLS viscosity of concentrated omalizumab with nicotinamide mononucleotide and itaconic acid (Example 52); format: physicochemical; conditions: 20 mM His HCl pH 6, excipient stock 1 M or solubility limit
Experimental: These substances were used as excipients in the following experiment.
The resulting concentrated formulation was analyzed by A280 for protein concentration by making serial dilutions of the concentrated formulation in 20 mM His HCl, loading 100 microliters of each dilution into a UV clear 96 half-well microplate (Greiner Bio-One, Austria), and measuring absorbance at a wavelength of 280 nm with a Synergy HT plate reader (BioTek, Winooski, VT). The blanked, path-length-corrected A280 measurement for each sample was then divided by the respective extinction coefficient and multiplied by the dilution factor to determine the protein concentration. […] The concentrated protein formulation was then combined with the stock excipient solution or a control at a ratio of 9 parts protein formulation: 1 part excipient solution or buffer (for the control), and aliquots were added to the wells of a 384 well microplate (Aurora Microplates, Whitefish, MT). […] After the microplate was shaken, 2 microliters of a 5-fold dilution of polyethylene glycol surface-modified gold nanoparticles having a diameter of 100 nm (nanoComposix, San Diego, CA) in 20 mM His HCl were added to each sample well. […]

[7] = tested on: bevacizumab (AVASTIN®); assay: Viscosity of AVASTIN with caffeine, microVisc (Example 39); format: physicochemical; conditions: for % Viscosity Reduction from Excipient: 10 mg/mL caffeine vs no excipient; for Viscosity with 10 mg/mL added caffeine excipient: 10 mg/mL caffeine, 25 mM histidine HCl
Experimental: Viscosity was measured by RheoSense microVisc and concentration was determined by absorbance at 280 nm (extinction coefficient, 1.605 mL/mg). […].

Chain of PEGylated lysozyme with multiple PEG chains per lysozyme molecule (P00698 19-147): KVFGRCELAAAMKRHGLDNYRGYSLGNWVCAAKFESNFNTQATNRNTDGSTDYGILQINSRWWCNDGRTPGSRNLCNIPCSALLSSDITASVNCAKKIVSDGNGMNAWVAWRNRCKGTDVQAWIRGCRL
T1 sequence (P02769 25-607): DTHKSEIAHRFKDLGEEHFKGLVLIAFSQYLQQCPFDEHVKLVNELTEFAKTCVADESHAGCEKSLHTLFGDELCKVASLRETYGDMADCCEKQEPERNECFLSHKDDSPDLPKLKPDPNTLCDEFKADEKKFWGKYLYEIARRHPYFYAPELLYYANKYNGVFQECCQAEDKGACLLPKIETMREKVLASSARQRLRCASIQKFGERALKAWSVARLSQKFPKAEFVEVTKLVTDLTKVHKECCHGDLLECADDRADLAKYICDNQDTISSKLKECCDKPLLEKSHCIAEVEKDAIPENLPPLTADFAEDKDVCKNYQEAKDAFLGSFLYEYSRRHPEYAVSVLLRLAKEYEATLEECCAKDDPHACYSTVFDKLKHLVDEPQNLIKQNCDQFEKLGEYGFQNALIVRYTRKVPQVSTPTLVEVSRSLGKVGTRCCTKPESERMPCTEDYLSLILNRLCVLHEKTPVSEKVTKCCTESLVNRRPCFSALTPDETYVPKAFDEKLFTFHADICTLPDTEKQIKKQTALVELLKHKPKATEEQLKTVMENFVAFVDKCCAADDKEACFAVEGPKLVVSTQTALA

CC(=O)[O-].[K+] [K acetate, potassium acetate]
Viscosity Reduction [1]: 60%
Viscosity (cP) ([2]; PEGylated lysozyme, 500 s-1, ambient temperature, excipient 20 mg/mL): 22.6 cP
Viscosity Reduction ([2]; versus 24.6 cP with no excipient): 8%

N=C(N)NCCC[C@H](N)C(=O)O [Arginine, reference compound]
Viscosity Reduction (%) [3]: 41%
Normalized Viscosity ([4]; Excipient A caffeine 15 mg/mL + Excipient B 20 mg/mL): 0.63

O=C([O-])c1ccccc1O.[Na+] [Sodium salicylate]
Viscosity Reduction [5]: 28% and 34%
Viscosity (cP) ([5]; pH 6): 57 cP and 52 cP

NC(=O)c1ccc[n+]([C@@H]2O[C@H](COP(=O)([O-])O)[C@@H](O)[C@H]2O)c1 [Nicotinamide mononucleotide]
DLS Viscosity, Replicate 1 [6]: 33.6 cP
DLS Viscosity, Replicate 2 [6]: 22.2 cP

Alpha-Cyclodextrin sulfated Na salt
Viscosity Reduction [1]: 34%

Cn1c(=O)c2c(ncn2C)n(C)c1=O [Caffeine]
% Viscosity Reduction from Excipient ([7]; AVASTIN 190 mg/mL): 36%
Viscosity with 10 mg/mL added caffeine excipient ([7]; AVASTIN 190 mg/mL): 13 cP
% Viscosity Reduction from Excipient ([7]; AVASTIN 213 mg/mL): 73%
Viscosity with 10 mg/mL added caffeine excipient ([7]; AVASTIN 213 mg/mL): 22 cP
% Viscosity Reduction from Excipient ([7]; AVASTIN 266 mg/mL): 62%
Viscosity with 10 mg/mL added caffeine excipient ([7]; AVASTIN 266 mg/mL): 113 cP
Viscosity Reduction (%) [3]: 33%
Normalized Viscosity ([4]; Excipient A caffeine 15 mg/mL, no Excipient B): 0.77
